Columns and labels:
[1] = target: R. sphaeroides cytochrome c oxidase (RsCcO) wild-type (Cereibacter sphaeroides, UniProt P33517+Q03736); test: biochemical; format: biochemical, Rhodobacter sphaeroides; details: for Shape of response in ligand titration: activation at low ligand concentration followed by inhibition at higher concentration
RsCcO E101A mutant [2] = target: T1, RsCcO E101A mutant (Cereibacter sphaeroides, UniProt P33517+Q03736, E101A); details: cited from earlier work
RsCcO E101A mutant [3] = target: T1, RsCcO E101A mutant; test: biochemical; design: species or system Rhodobacter sphaeroides

R. sphaeroides cytochrome c oxidase (RsCcO) wild-type, sequence (P33517 whole entry): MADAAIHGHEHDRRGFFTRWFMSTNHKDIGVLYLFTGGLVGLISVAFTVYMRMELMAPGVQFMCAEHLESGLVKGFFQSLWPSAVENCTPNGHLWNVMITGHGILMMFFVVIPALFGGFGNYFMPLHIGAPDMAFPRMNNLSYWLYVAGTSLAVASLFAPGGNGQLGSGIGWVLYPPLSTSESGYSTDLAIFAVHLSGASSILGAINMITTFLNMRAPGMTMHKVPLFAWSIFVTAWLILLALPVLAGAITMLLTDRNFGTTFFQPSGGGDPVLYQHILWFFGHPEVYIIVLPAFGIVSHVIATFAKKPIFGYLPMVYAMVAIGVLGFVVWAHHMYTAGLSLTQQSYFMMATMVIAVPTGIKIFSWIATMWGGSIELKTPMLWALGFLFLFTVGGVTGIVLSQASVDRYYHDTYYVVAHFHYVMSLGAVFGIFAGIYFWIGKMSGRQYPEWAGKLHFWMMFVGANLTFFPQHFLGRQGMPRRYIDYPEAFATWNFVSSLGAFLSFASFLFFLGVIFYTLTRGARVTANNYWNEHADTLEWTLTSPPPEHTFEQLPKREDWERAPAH
R. sphaeroides cytochrome c oxidase (RsCcO) wild-type, sequence (Q03736 26-303): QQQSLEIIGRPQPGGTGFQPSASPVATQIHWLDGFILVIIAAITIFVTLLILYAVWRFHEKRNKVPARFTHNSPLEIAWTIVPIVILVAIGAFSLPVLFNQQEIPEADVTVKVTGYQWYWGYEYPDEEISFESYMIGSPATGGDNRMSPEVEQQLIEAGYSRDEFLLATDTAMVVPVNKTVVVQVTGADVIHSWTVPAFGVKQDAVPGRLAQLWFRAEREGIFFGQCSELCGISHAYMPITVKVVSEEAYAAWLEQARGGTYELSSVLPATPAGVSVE
T1 sequence (P33517 whole entry): as the sequence (P33517 whole entry) above
T1 sequence (Q03736 26-303 E101A): as the sequence (Q03736 26-303) above, with E76A counted along it

CC(C)=CCC/C(C)=C/CC/C(C)=C/CO[P@@](=O)(O)OP(=O)(O)O (stereo in doubt) [farnesyl diphosphate]
Effect on RsCcO activity at maximal ligand concentration ([1]; WT, saturating cytochrome c): no significant effect

Nc1ncnc2c1ncn2[C@@H]1O[C@H](COP(=O)(O)OP(=O)(O)O)[C@@H](O)[C@H]1O [ADP]
Effect on RsCcO activity at maximal ligand concentration ([1]; WT, saturating cytochrome c): no significant effect

Nc1ncnc2c1ncn2[C@@H]1O[C@H](COP(=O)(O)OP(=O)(O)NP(=O)(O)O)[C@@H](O)[C@H]1O [ATP analog, adenosine 5′-(β, γ-imido) triphosphate]
Effect on E101A mutant activity (RsCcO E101A mutant [2]): very low stimulation and no inhibition of activity | Competition with DOC inhibition of RsCcO ([1]; WT, 5 mM ATP analog, DOC 0–2 mM, saturating cytochrome c): prevented DOC in the 0–2 mM range from inhibiting RsCcO activity | Effect of ligand alone on RsCcO activity ([1]; WT, 5 mM ligand, saturating cytochrome c): no effect | Shape of response in ligand titration ([1]; WT, saturating cytochrome c): biphasic response

C[C@H](CCC(=O)O)[C@H]1CC[C@H]2[C@@H]3CC[C@@H]4C[C@H](O)CC[C@]4(C)[C@H]3C[C@H](O)[C@]12C [DOC, deoxycholate]
Mode of inhibition with respect to cytochrome c (RsCcO E101A mutant [3]; E101A mutant, 0–30 μM cytochrome c): noncompetitive inhibition | IC50 [1]: 1400 µM | Mode of inhibition with respect to cytochrome c ([1]; WT, 0–30 μM cytochrome c): noncompetitive inhibition | Maximal lowering of RsCcO activity ([1]; WT, saturating cytochrome c): more than 90%

Cc1cc2nc3c(=O)[nH]c(=O)nc-3n(C[C@H](O)[C@H](O)[C@H](O)COP(=O)(O)OP(=O)(O)OC[C@H]3O[C@@H](n4cnc5c(N)ncnc54)[C@H](O)[C@@H]3O)c2cc1C [FAD]
Effect on RsCcO activity at maximal ligand concentration ([1]; WT, saturating cytochrome c): no significant effect

CC(=O)O[C@H]1C[C@@]2(C)[C@@H](C[C@@H](O)[C@H]3[C@@]4(C)CC[C@@H](O)[C@@H](C)[C@@H]4CC[C@@]32C)/C1=C(\CCC=C(C)C)C(=O)O [Fusidic acid, fusidic acid]
IC50 [1]: 3400 µM | Ki [1]: 2500 µM | Shape of response in ligand titration ([1]; WT, saturating cytochrome c): biphasic response

Nc1nc2c(ncn2[C@@H]2O[C@H](COP(=O)(O)OP(=O)(O)O)[C@@H](O)[C@H]2O)c(=O)[nH]1 [GDP]
Effect on E101A mutant activity (RsCcO E101A mutant [2]): very low stimulation and no inhibition of activity

NC(=O)c1ccc[n+]([C@@H]2O[C@H](COP(=O)([O-])OP(=O)(O)OC[C@H]3O[C@@H](n4cnc5c(N)ncnc54)[C@H](O)[C@@H]3O)[C@@H](O)[C@H]2O)c1 [NAD^+]
Effect on RsCcO under low or high concentrations of cytochrome c ([1]; WT, 0–30 μM cytochrome c): failed to affect RsCcO | Effect on RsCcO activity at maximal ligand concentration ([1]; WT, saturating cytochrome c): no significant effect

C[C@]12CCC(=O)C=C1CC[C@@H]1[C@@H]2[C@@H](O)C[C@]2(C=O)[C@@H](C(=O)CO)CC[C@@H]12 [aldosterone]
Effect on RsCcO under low or high concentrations of cytochrome c ([1]; WT, 0–30 μM cytochrome c): failed to affect RsCcO | Effect on RsCcO activity at maximal ligand concentration ([1]; WT, saturating cytochrome c): no significant effect

C[C@]12CC[C@@H]3c4ccc(O)cc4CC[C@H]3[C@@H]1CC[C@@H]2O [estradiol]
Effect on RsCcO under low or high concentrations of cytochrome c ([1]; WT, 0–30 μM cytochrome c): failed to affect RsCcO | Effect on RsCcO activity at maximal ligand concentration ([1]; WT, saturating cytochrome c): no significant effect

C[C@]12CCC(=O)C=C1CC[C@@H]1[C@@H]2[C@@H](O)C[C@@]2(C)[C@H]1CC[C@]2(O)C(=O)CO [hydrocortisone]
Effect on RsCcO under low or high concentrations of cytochrome c ([1]; WT, 0–30 μM cytochrome c): failed to affect RsCcO | Effect on RsCcO activity at maximal ligand concentration ([1]; WT, saturating cytochrome c): no significant effect

CC1=C(/C=C/C(C)=C/C=C/C(C)=C/C(=O)O)C(C)(C)CCC1 [retinoic acid]
IC50 (RsCcO E101A mutant [3]): 190 µM | IC50 [1]: 1700 µM | Ki [1]: 140 µM | Shape of response in ligand titration ([1]; WT, saturating cytochrome c): biphasic response

C[C@]12CC[C@H]3[C@@H](CCC4=CC(=O)CC[C@@]43C)[C@@H]1CC[C@@H]2O [testosterone]
Effect on RsCcO under low or high concentrations of cytochrome c ([1]; WT, 0–30 μM cytochrome c): failed to affect RsCcO | Effect on RsCcO activity at maximal ligand concentration ([1]; WT, saturating cytochrome c): no significant effect

cytochrome c: purified bovine heart cytochrome c used as the substrate
Km ([1]; read-out: Km of cytochrome c, RsCcO WT and E101A, unchanged by DOC inhibition): ~1 µM

— paper PMC3859723 (Biochemistry, 2013)
